In this assay the target is T1, human Farnesoid X Receptor (FXR) ligand binding domain (GST-FXR LBD) (Homo sapiens, UniProt Q96RI1).
T1 construct: purchased Invitrogen
T1 sequence (Q96RI1 193-472 isoform Q96RI1-2): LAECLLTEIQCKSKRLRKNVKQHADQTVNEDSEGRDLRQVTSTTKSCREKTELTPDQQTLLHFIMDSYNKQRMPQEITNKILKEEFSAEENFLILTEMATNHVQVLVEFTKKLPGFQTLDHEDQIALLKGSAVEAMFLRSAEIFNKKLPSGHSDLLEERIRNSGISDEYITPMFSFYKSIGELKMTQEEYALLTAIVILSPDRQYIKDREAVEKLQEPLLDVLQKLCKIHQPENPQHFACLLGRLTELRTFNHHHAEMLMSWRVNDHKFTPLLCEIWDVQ
Briefly: Human GST-FXR LBD co-activator interaction assay (FXR HTRF assay). Format: biochemical. Particulars: ligand-dependent interaction of GST-FXR LBD with biotin-labeled SRC-1 peptide, response relative to GW4064, read-out: FXR coactivator interaction assay (HTRF). An excerpt: Human GST-FXR LBD Co-Activator Interaction Assay
The FXR HTRF assay is a biochemical assay measuring the interaction between FXR and a coactivator protein (SRC1). The ligand-induced interaction with a coactivator protein is a critical step in transcriptional activation by FXR. Thus, this is an assay designed to measure FXR agonist activity of the test compounds.
Recombinant human Farnesoid X Receptor (FXR) ligand binding domain (amino acids 193-472) fused to glutathione S-transferase (GST) purified protein (GST-FXR LBD) was purchased (Invitrogen). The ligand-dependent interaction between GST-FXR LBD and a peptide derived from Steroid Receptor Coactivator-1 (SRC-1) was monitored by Fluorescence Resonance Energy Transfer (FRET). […] Test compounds (in DMSO solution) and detection reagents (anti-GST-Cryptate labeled antibody and Streptavidin-XL665 conjugate; CisBio) were added in assay buffer containing 50 mM KF. Plates are incubated at room temperature in the dark for 2.5 hrs before reading on an Envision (PerkinElmer) at 665 nm and 590 nm. The HTRF assay results were calculated from the 665 nm/590 nm ratio (ratio=(A665 nm/A590 nm)×10^4) and expressed in Delta F %=(Ratiosample−Rationegative)/Rationegative×100.
A negative control (without Streptavidin-XL665) was run with each assay and represented the background fluorescence. A reference FXR agonist, (E)-3-(2-chloro-4-((3-(2,6-dichlorophenyl)-5-isopropylisoxazol-4-yl)methoxy)styryl)benzoic acid (Compound GW4064), was included in each experiment as positive control. The efficacy of each test compound was compared to that of GW4064. At each concentration, the relative activity of the test compound was expressed as Response %=(Rsample−RDMSO)/(Rpositive−RDMSO), where Rsample is the HTRF response (expressed in Delta F %) for the test compound, Rpositive is the maximal response for GW4064 at saturating concentrations, and RDMSO is the response for DMSO control. The EC50 values were calculated using GraphPad Prism (GraphPad Software) using non-linear regression curve fit (log(agonist) vs. response—variable slope (four parameters)).

As to `Cn1nc(C(=O)N(Cc2ccccc2)Cc2ccc(C(N)=O)cc2)c2c1-c1cc(Cl)ccc1OC2` [Compound 53, N-benzyl-N-(4-carbamoylbenzyl)-8-chloro-1-methyl-1,4-dihydrochromeno[4,3-c]pyrazole-3-carboxamide], the EC50 was found to be 442 nM.

For the compound `Cn1nc(C(=O)N(CC(=O)NCC2CCCOC2)Cc2ccccc2F)c2c1-c1cc(Cl)ccc1OC2` (stereo not drawn) [Compound 32, 2-(1-{8-chloro-1-methyl-1H,4H-chromeno[4,3-c]pyrazol-3-yl}-N-[(2-fluorophenyl)methyl]formamido)-N-(oxan-3-ylmethyl)acetamide], the EC50 turned out to be 376 nM.

As for `Cn1nc(C(=O)N(CCNC(=O)NCC2CC2)Cc2ccccc2F)c2c1-c1cc(Cl)ccc1OC2` [Compound 60, 8-chloro-N-(2-(3-(cyclopropylmethyl)ureido)ethyl)-N-(2-fluorobenzyl)-1-methyl-1,4-dihydrochromeno[4,3-c]pyrazole-3-carboxamide], the EC50 was 1810 nM.

Consider `CC(C)NC(=O)CN(Cc1cc(F)ccc1F)C(=O)c1nn(C)c2c1COc1ccc(Br)cc1-2` [Compound 16, 2-(1-{8-bromo-1-methyl-1H,4H-chromeno[4,3-c]pyrazol-3-yl}-N-[(2,5-difluorophenyl)methyl]formamido)-N-(propan-2-yl)acetamide], for which the EC50 was 49 nM.

Turning to `Cn1nc(C(=O)N(CC(=O)NCC2CC2)Cc2cccc(F)c2F)c2c1-c1cc(Cl)ccc1OC2` [Compound 6, 2-(1-{8-chloro-1-methyl-1H,4H-chromeno[4,3-c]pyrazol-3-yl}-N-[(2,3-difluorophenyl)methyl]formamido)-N-(cyclopropylmethyl) acetamide], the EC50 stood at 12 nM.

As to `Cn1nc(C(=O)N(CC(=O)NCC2CCCO2)Cc2ccccc2F)c2c1-c1cc(Cl)ccc1OC2` (stereo not drawn) [Compound 31, 2-(1-{8-chloro-1-methyl-1H,4H-chromeno[4,3-c]pyrazol-3-yl}-N-[(2-fluorophenyl)methyl]formamido)-N-(oxolan-2-ylmethyl)acetamide], the EC50 is 124 nM.

As to `CCNC(=O)CN(Cc1ccccc1F)C(=O)c1nn(C)c2c1COc1ccc(Cl)cc1-2` [Compound 17, 2-(1-{8-chloro-1-methyl-1H,4H-chromeno[4,3-c]pyrazol-3-yl}-N-[(2-fluorophenyl)methyl]formamido)-N-ethylacetamide], the EC50 was determined as 54 nM.

For `Cn1nc(C(=O)N(CC(=O)NC[C@@H]2CCCO2)Cc2ccccc2F)c2c1-c1cc(Cl)ccc1OC2` [Compound 21, 2-(1-{8-chloro-1-methyl-1H,4H-chromeno[4,3-c]pyrazol-3-yl}-N-[(2-fluorophenyl)methyl]formamido)-N-[(2S)-oxolan-2-ylmethyl]acetamide], the EC50 came to 160 nM.

Take `Cn1nc(C(=O)N(CC(=O)NCC2CC2)Cc2nccs2)c2c1-c1cc(Cl)ccc1OC2` [Compound 81, 2-(1-{8-chloro-1-methyl-1H,4H-chromeno[4,3-c]pyrazol-3-yl}-N-(1,3-thiazol-2-ylmethyl)formamido)-N-(cyclopropylmethyl)acetamide]: the EC50 stood at 48 nM.

As to `CC(C)C(=O)NCCN(Cc1ccccc1)C(=O)c1nn(C)c2c1COc1ccc(Cl)cc1-2` [Compound 73, N-[2-(N-benzyl-1-{8-chloro-1-methyl-1H,4H-chromeno[4,3-c]pyrazol-3-yl}formamido)ethyl]-2-methylpropanamide], the EC50 was found to be 50 nM.

Take `Cn1nc(C(=O)N(CC(=O)NC2CCS(=O)(=O)C2)Cc2ccccc2F)c2c1-c1cc(Cl)ccc1OC2` (stereo not drawn) [Compound 39, 8-chloro-N-(2-((1,1-dioxidotetrahydrothiophen-3-yl)amino)-2-oxoethyl)-N-(2-fluorobenzyl)-1-methyl-1,4-dihydrochromeno[4,3-c]pyrazole-3-carboxamide]: the EC50 was 482 nM.

With `Cn1nc(C(=O)N(CC(=O)NC(C)(C)c2ccccc2)Cc2ccccc2F)c2c1-c1cc(Cl)ccc1OC2` [Compound 43, 2-(1-{8-chloro-1-methyl-1H,4H-chromeno[4,3-c]pyrazol-3-yl}-N-[(2-fluorophenyl)methyl]formamido)-N-(2-phenylpropan-2-yl)acetamide], the EC50 amounted to 1700 nM.

In the case of `CNC(=O)CN(Cc1ccccc1)C(=O)c1nn(C)c2c1COc1ccc(Br)cc1-2` [Compound 34, 2-(N-benzyl-1-{8-bromo-1-methyl-1H,4H-chromeno[4,3-c]pyrazol-3-yl}formamido)-N methylacetamide], the EC50 worked out at 193 nM.

Turning to `Cn1nc(C(=O)N(CC(=O)NCC(O)C(F)(F)F)Cc2ccccc2F)c2c1-c1cc(Cl)ccc1OC2` (stereo not drawn) [Compound 44, 8-chloro-N-(2-fluorobenzyl)-1-methyl-N-(2-oxo-2-((3,3,3-trifluoro-2-hydroxypropyl)amino)ethyl)-1,4-dihydrochromeno[4,3-c]pyrazole-3-carboxamide], the EC50 was 8 nM.

With `Cn1nc(C(=O)N(CC(=O)NCC2CC2)Cc2ccccc2F)c2c1-c1cc(Cl)ccc1OC2` [Compound 3, 2-(1-{8-chloro-1-methyl-1H,4H-chromeno[4,3-c]pyrazol-3-yl}-N-[(2-fluorophenyl)methyl]formamido)-N-(cyclopropylmethyl)acetamide], the EC50 was 1 nM.

As for `Cn1nc(C(=O)N(CC(=O)NC2CCC2)Cc2cccc(F)c2)c2c1-c1cc(Cl)ccc1OC2` [Compound 12, 2-(1-{8-chloro-1-methyl-1H,4H-chromeno[4,3-c]pyrazol-3-yl}-N-[(3-fluorophenyl)methyl]formamido)-N-cyclobutylacetamide], the EC50 stood at 14 nM.

In the case of `CC(C)NC(=O)CN(Cc1cccc(F)c1)C(=O)c1nn(C)c2c1COc1ccc(Cl)cc1-2` [Compound 15, 2-(1-{8-chloro-1-methyl-1H,4H-chromeno[4,3-c]pyrazol-3-yl}-N-[(3-fluorophenyl)methyl]formamido)-N-(propan-2-yl)acetamide], the EC50 stood at 27 nM.

For `Cn1nc(C(=O)N(CC(=O)NC(C)(C)C)Cc2cccc(F)c2)c2c1-c1cc(Cl)ccc1OC2` [Compound 14, N-tert-butyl-2-(1-{8-chloro-1-methyl-1H,4H-chromeno[4,3-c]pyrazol-3-yl}-N-[(3-fluorophenyl)methyl]formamido)acetamide], the EC50 turned out to be 58 nM.

As to `Cn1nc(C(=O)N(CC(=O)NC2CC2)Cc2cccc(F)c2)c2c1-c1cc(Cl)ccc1OC2` [Compound 27, 2-(1-{8-chloro-1-methyl-1H,4H-chromeno[4,3-c]pyrazol-3-yl}-N-[(3-fluorophenyl)methyl]formamido)-N-cyclopropylacetamide], the EC50 is 61 nM.

Turning to `Cn1nccc1NC(=O)CN(Cc1ccccc1F)C(=O)c1nn(C)c2c1COc1ccc(Cl)cc1-2` [Compound 41, 2-(1-{8-chloro-1-methyl-1H,4H-chromeno[4,3-c]pyrazol-3-yl}-N-[(2-fluorophenyl)methyl]formamido)-N-(1-methyl-1H-pyrazol-5-yl)acetamide], the EC50 turned out to be 1610 nM.

Turning to `CC(C)NC(=O)CN(Cc1cccc(F)c1)C(=O)c1nn(C)c2c1COc1ccc(Br)cc1-2` [Compound 28, 2-(1-{8-bromo-1-methyl-1H,4H-chromeno[4,3-c]pyrazol-3-yl}-N-[(3-fluorophenyl)methyl]formamido)-N-(propan-2-yl)acetamide], the EC50 came to 36 nM.

For the compound `CC(C)S(=O)(=O)NCCN(Cc1ccccc1F)C(=O)c1nn(C)c2c1COc1ccc(Cl)cc1-2` [Compound 63, 8-chloro-N-[(2-fluorophenyl)methyl]-1-methyl-N-[2-(propane-2-sulfonamido)ethyl]-1H,4H-chromeno[4,3-c]pyrazole-3-carboxamide], the EC50 amounted to 644 nM.

In the case of `Cn1nc(C(=O)N(CC(=O)NCC2CC2)Cc2c(F)cccc2F)c2c1-c1cc(Cl)ccc1OC2` [Compound 5, 2-(1-{8-chloro-1-methyl-1H,4H-chromeno[4,3-c]pyrazol-3-yl}-N-[(2,6-difluorophenyl)methyl]formamido)-N-(cyclopropylmethyl)acetamide], the EC50 was 13 nM.

For `CC(C)NC(=O)CN(Cc1cc(F)cc(F)c1)C(=O)c1nn(C)c2c1COc1ccc(Cl)cc1-2` [Compound 24, 2-(1-{8-chloro-1-methyl-1H,4H-chromeno[4,3-c]pyrazol-3-yl}-N-[(3,5-difluorophenyl)methyl]formamido)-N-(propan-2-yl)acetamide], the EC50 is 78 nM.
